Reference: patent US4873238A, “2-Pyridinecarbothioamides and pharmaceutical compositions comprising the same” (American Home Products Corporation, priority 1988, dated 1989)
Counter-ions that a name gives are not always drawn.

Key:
[1] = system: gastric mucosal lesions produced by ethanol; experiment: Ethanol induced cytotoxicity in rats (prevention of gastric mucosal lesions); assay type: in vivo, Male Sprague-Dawley rats; conditions: for % Inhibition of lesion formation: 10 mg/kg oral, 1 hour prior to ethanol, rat; for ED50: Rattus norvegicus, po
Experimental: The purpose of this assay is to evaluate the effectiveness of the compounds of the present invention in preventing the formation of gastric mucosal lesions produced by ethanol. The assay is based on A. Robert et al., Gastroenterology 77, 433-443 (1979). Male Sprague-Dawley rats weighing between 120-150 grams were fasted for 24 hours prior to the experiment (water ad libitum). At least two hours before dosing, the animals were placed in individual cages with wire grid bottoms and denied access to water. Ethanol was administered orally at 1 mL per animal. The compounds of the present invention were dissolved in water or suspended in water with 0.5% carboxymethylcellulose and administered orally at a dose based on an appropriate standard giving ED50 to ED75 response of cytoprotective activity. The rats were randomly divided into groups of equal number, ordinarily 10 to a group. The rats were weighed and the individual weights were recorded. Exactly 1 hour prior to the administration of ethanol, the screening group was treated with the compounds of the present invention and the control group with the vehicle. One hour after administering the ethanol, the animals were euthanized. The stomachs were removed, cut along the greater curvature, and cleansed of all debris with tap water. The stomachs were set aside and kept moist with saline until the lesions were scored. Macroscopic lesions on the gastric mucosa were numerically graded. The final grade assigned a stomach was the sum of all the grades. Streaks longer than 6 mm are graded in multiples of 2 mm. The degree of cytotoxicity occuring in each group is represented as the mean ±SE ulcer grade. The mean of each treatment group was compared to the control group and expressed as the % inhibition of lesion formation.

stress-induced ulcers = experiment: Stress-induced gastric ulcers in rats; assay type: in vivo, Male rats; conditions: oral or parenteral, usually 15 to 45 minutes prior to stress; restraint at 4-5 °C for 3 hours; sodium taurocholate 20 mg p.o.; rat; read-out: Stress-Induced Ulcer ED50
Experimental: The purpose of this assay is to evaluate the effectiveness of the compounds of the present invention in preventing stress-induced ulcers. Male rats (280-380 g) were fasted for 18 hours (water available ad libitum) prior to use in experiments. Eight to twelve rats were used per group. Drug solutions or suspensions were prepared in physiological saline solution. Suspensions were prepared with the aid of 0.5% carboxymethylcellulose in physiological saline solution. Drugs were administered orally or parenterally at predetermined intervals (usually 15 to 45 minutes) prior to stress. This test procedure is according to the method of Senay et al., Proc. Soc. Exp. Biol. Med. 124, 1221 (1967), modified to produce a more consistent ulcer incidence. After drug administration, the rats were immobilized in metallic restrainers and placed in a cold room at 4°-5° C. for 3 hours before they were euthanized. Each rat was given 20 mg of sodium taurocholate p.o. immediately before placing it in the restrainer. After euthanizing the rats, the stomachs were excised and examined. Macroscopic ulcers were subjectively assigned a grade from 1 to 3 on the basis of increasing size. The number of ulcers in each size category was determined and multiplied by the respective grade; the addition of the resultant values gave the cumulative ulcer score. The average cumulative ulcer score of each […] group was compared to that of the control group and the percent inhibition of ulcer formation was calculated. When the responses obtained were directly proportional to the doses employed, ED50 values were determined from the dose-response curves obtained.

ethanol-induced ulcer = conditions: antisecretory agents; cited from earlier work

CN1CCN(Cc2cccc(NC(=S)c3ccccn3)c2)CC1 [Example 10, N-[3-[(4-methyl-1-piperazinyl)methyl]phenyl]-2-pyridinecarbothioamide dihydrochloride hemihydrate]
% Inhibition of lesion formation [1]: 10%

S=C(Nc1ccc(CN2CCCCC2)cc1)c1ccccn1 [Example 7, N-[4-(piperidinylmethyl)phenyl]-2-pyridinecarbothioamide]
ED50 [1]: 6.2 mg/kg

S=C(Nc1cccc(CN2CCCCC2)c1)c1ccccn1 [Example 6, N-[3-(piperidinylmethyl)phenyl]-2-pyridinecarbothioamide]
ED50 [1]: 5.3 mg/kg
ED50 (stress-induced ulcers): 4.6 mg/kg

Fc1ccc(NC(=S)c2ccccn2)cc1CN1CCCCC1 [Example 2, N-[4-Fluoro-3-(piperidinylmethyl)phenyl]-2-pyridinecarbothioamide Hydrochloride]
ED50 [1]: 2.6 mg/kg

CN/C(=N/CCSCc1nc[nH]c1C)NC#N [cimetidine]
Protection in the ethanol-induced ulcer model (ethanol-induced ulcer): do not protect

CC(C)[N+](C)(CCOC(=O)C1c2ccccc2Oc2ccccc21)C(C)C [propantheline bromide]
Protection in the ethanol-induced ulcer model (ethanol-induced ulcer): do not protect

S=C(Nc1cccc(CN2CCSCC2)c1)c1ccccn1 [Example 9, N-[3-[(4-thiomorpholinyl)methyl]phenyl]-2-pyridinecarbothioamide]
% Inhibition of lesion formation [1]: 32%

Fc1ccc(NC(=S)c2ccccn2)cc1Cn1ccnc1 [Example 1, N-[4-fluoro-3-[(1H-imidazol-1-yl)methyl]phenyl]-2-pyridinecarbothioamide]
ED50 [1]: 0.88 mg/kg

N#Cc1ccc(NC(=S)c2ccccn2)cc1 [Example 3, N-(4-Cyanophenyl)-2-pyridinecarbothioamide]
ED50 [1]: 1.1 mg/kg
ED50 (stress-induced ulcers): 1.7 mg/kg

S=C(Nc1cccc(CN2CCOCC2)c1)c1ccccn1 [Example 8, N-[3-[(4-Morpholinyl)methyl]phenyl]-2-pyridinecarbothioamide]
% Inhibition of lesion formation [1]: 64%

Cl.Cl.O.S=C(Nc1cccc(Cn2ccnc2)c1)c1ccccn1 [Example 5, N-[3-[(1H-Imidazol-1-yl)methyl]phenyl]-2-pyridinecarbothioamide Dihydrochloride Hydrate]
ED50 [1]: 2.2 mg/kg
ED50 (stress-induced ulcers): 1.9 mg/kg

N#Cc1cccc(NC(=S)c2ccccn2)c1 [Example 4, N-(3-cyanophenyl)-2-pyridinecarbothioamide]
ED50 [1]: 1.6 mg/kg
